According to ChEMBL document CHEMBL3885861, “Open TG-GATES”:

Species: Rattus norvegicus
Assay: Open TG-GATES - Regimen: Daily Repeat
Type: toxicity, organism-based, Sprague-Dawley
Design: regimen Daily Repeat, gender Male, age 6 weeks
Conditions: in vivo, po, route gavage; for APTT / Bas / Eos / Fbg / Hb / Ht / Lym / MCH / MCHC / MCV / Mono / Neu / PT / Plat / RBC / Ret / WBC: tissue Blood; for KIDNEY_L / KIDNEY_R / KIDNEY_TOTAL: tissue Kidney; for LIVER: tissue Liver; for ALP / ALT / AST / BUN / CRE / Ca / DBIL / GLC / IP / K / LDH / Na / PL / RALB / TBIL / TC / TG / TP / gamma-GTP: tissue Plasma
[1] = 0 mg/kg, 72 h, dose level Control, time 3 day
[2] = 0 mg/kg, […], dose level Control, time 7 day
[3] = 0 mg/kg, […], dose level Control, time 14 day
[4] = 0 mg/kg, […], dose level Control, time 28 day
[5] = 10 mg/kg, 72 h, dose level Low, time 3 day
[6] = 10 mg/kg, […], dose level Low, time 7 day
[7] = 10 mg/kg, […], dose level Low, time 14 day
[8] = 10 mg/kg, […], dose level Low, time 28 day

Question: Which results are given for `CSc1ccc2c(c1)N(CCC1CCCCN1C)c1ccccc1S2` (configuration not stated) [THIORIDAZINE]?
Answer: TERMINAL_BW [1]: 237.9 g; APTT [1]: 16.6 s; Bas [1]: 0%; Eos [1]: 1%; Fbg [1]: 215.2 mg/dL; Hb [1]: 13.7 g/dL; Ht [1]: 40.7%; Lym [1]: 78%; MCH [1]: 21.7 pg; MCHC [1]: 33.7%; MCV [1]: 64.4 fL; Mono [1]: 8.4%; Neu [1]: 13%; PT [1]: 11.9 s; Plat [1]: 107.7 x10_4/uL; RBC [1]: 631.6 x10_4/ul; Ret [1]: 8.1%; WBC [1]: 120 x10_2/uL; KIDNEY_L [1]: 1.1 g; KIDNEY_R [1]: 1.1 g; KIDNEY_TOTAL [1]: 2.2 g; LIVER [1]: 12 g; ALP [1]: 821.6 IU/L; ALT [1]: 37 IU/L; AST [1]: 63.8 IU/L; BUN [1]: 16.6 mg/dL; CRE [1]: 0.5 mg/dL; Ca [1]: 11.1 mg/dL; DBIL [1]: 0.034 mg/dL; GLC [1]: 193.4 mg/dL; IP [1]: 9.3 mg/dL; K [1]: 5.2 meq/L; LDH [1]: 95 IU/L; Na [1]: 139.4 meq/L; PL [1]: 159.6 mg/dL; RALB [1]: 4.2 g/dL; TBIL [1]: 0.4 mg/dL; TC [1]: 87 mg/dL; TG [1]: 88.2 mg/dL; TP [1]: 6 g/dL; gamma-GTP [1]: 1.2 IU/L; TERMINAL_BW [2]: 272.6 g; TERMINAL_BW [3]: 326.5 g; TERMINAL_BW [4]: 411.3 g; APTT [2]: 15.1 s; Bas [2]: 0%; Eos [2]: 0.6%; Fbg [2]: 241.2 mg/dL; Hb [2]: 13.9 g/dL; Ht [2]: 41.7%; Lym [2]: 83%; MCH [2]: 21.7 pg; MCHC [2]: 33.3%; MCV [2]: 65 fL; Mono [2]: 6.2%; Neu [2]: 10.2%; PT [2]: 11.6 s; Plat [2]: 100.8 x10_4/uL; RBC [2]: 642.4 x10_4/ul; Ret [2]: 5.4%; WBC [2]: 141.4 x10_2/uL; APTT [3]: 16.8 s; Bas [3]: 0%; Eos [3]: 0.6%; Fbg [3]: 243.4 mg/dL; Hb [3]: 14.4 g/dL; Ht [3]: 42.9%; Lym [3]: 78.4%; MCH [3]: 20.6 pg; MCHC [3]: 33.5%; MCV [3]: 61.5 fL; Mono [3]: 6.4%; Neu [3]: 14.6%; PT [3]: 11.5 s; Plat [3]: 106.3 x10_4/uL; RBC [3]: 697.6 x10_4/ul; Ret [3]: 4.5%; WBC [3]: 129.7 x10_2/uL; APTT [4]: 18.1 s; Bas [4]: 0%; Eos [4]: 0.6%; Fbg [4]: 234.6 mg/dL; Hb [4]: 15.2 g/dL; Ht [4]: 45.5%; Lym [4]: 83.4%; MCH [4]: 19.8 pg; MCHC [4]: 33.4%; MCV [4]: 59.2 fL; Mono [4]: 7.6%; Neu [4]: 8.2%; PT [4]: 11.8 s; Plat [4]: 98 x10_4/uL; RBC [4]: 769.4 x10_4/ul; Ret [4]: 3%; WBC [4]: 131.4 x10_2/uL; KIDNEY_L [2]: 1.2 g; KIDNEY_R [2]: 1.2 g; KIDNEY_TOTAL [2]: 2.4 g; KIDNEY_L [3]: 1.3 g; KIDNEY_R [3]: 1.3 g; KIDNEY_TOTAL [3]: 2.6 g; KIDNEY_L [4]: 1.5 g; KIDNEY_R [4]: 1.5 g; KIDNEY_TOTAL [4]: 2.9 g; LIVER [2]: 13.4 g; LIVER [3]: 15.6 g; LIVER [4]: 18.7 g; ALP [2]: 973 IU/L; ALT [2]: 32.4 IU/L; AST [2]: 65 IU/L; BUN [2]: 18.2 mg/dL; CRE [2]: 0.5 mg/dL; Ca [2]: 11.4 mg/dL; DBIL [2]: 0.016 mg/dL; GLC [2]: 181.2 mg/dL; IP [2]: 9 mg/dL; K [2]: 5.2 meq/L; LDH [2]: 149.4 IU/L; Na [2]: 141.6 meq/L; PL [2]: 175 mg/dL; RALB [2]: 4 g/dL; TBIL [2]: 0.3 mg/dL; TC [2]: 89.2 mg/dL; TG [2]: 140.8 mg/dL; TP [2]: 5.9 g/dL; gamma-GTP [2]: 1.4 IU/L; ALP [3]: 864.8 IU/L; ALT [3]: 33.4 IU/L; AST [3]: 57.2 IU/L; BUN [3]: 19 mg/dL; CRE [3]: 0.5 mg/dL; Ca [3]: 10.8 mg/dL; DBIL [3]: 0.014 mg/dL; GLC [3]: 189.8 mg/dL; IP [3]: 8 mg/dL; K [3]: 4.9 meq/L; LDH [3]: 96.8 IU/L; Na [3]: 139.8 meq/L; PL [3]: 163.6 mg/dL; RALB [3]: 4.1 g/dL; TBIL [3]: 0.3 mg/dL; TC [3]: 71.8 mg/dL; TG [3]: 200.4 mg/dL; TP [3]: 6.3 g/dL; gamma-GTP [3]: 0.8 IU/L; ALP [4]: 618.8 IU/L; ALT [4]: 34.6 IU/L; AST [4]: 62 IU/L; BUN [4]: 20.4 mg/dL; CRE [4]: 0.6 mg/dL; Ca [4]: 10.7 mg/dL; DBIL [4]: 0 mg/dL; GLC [4]: 191.4 mg/dL; IP [4]: 6.7 mg/dL; K [4]: 4.5 meq/L; LDH [4]: 135.2 IU/L; Na [4]: 139.4 meq/L; PL [4]: 170.8 mg/dL; RALB [4]: 4.1 g/dL; TBIL [4]: 0.3 mg/dL; TC [4]: 87.4 mg/dL; TG [4]: 186.2 mg/dL; TP [4]: 6.5 g/dL; gamma-GTP [4]: 1.4 IU/L; TERMINAL_BW [5]: 239 g; APTT [5]: 16.3 s; Bas [5]: 0%; Eos [5]: 1%; Fbg [5]: 219.4 mg/dL; Hb [5]: 13.5 g/dL; Ht [5]: 40.6%; Lym [5]: 81%; MCH [5]: 21.2 pg; MCHC [5]: 33.3%; MCV [5]: 63.6 fL; Mono [5]: 5.8%; Neu [5]: 12.4%; PT [5]: 11.9 s; Plat [5]: 107.3 x10_4/uL; RBC [5]: 638.4 x10_4/ul; Ret [5]: 8.8%; WBC [5]: 136.6 x10_2/uL; KIDNEY_L [5]: 1.1 g; KIDNEY_R [5]: 1.1 g; KIDNEY_TOTAL [5]: 2.2 g; LIVER [5]: 12.5 g; ALP [5]: 797.8 IU/L; ALT [5]: 35.6 IU/L; AST [5]: 62.2 IU/L; BUN [5]: 17.2 mg/dL; CRE [5]: 0.5 mg/dL; Ca [5]: 11 mg/dL; DBIL [5]: 0.042 mg/dL; GLC [5]: 193.2 mg/dL; IP [5]: 9 mg/dL; K [5]: 4.7 meq/L; LDH [5]: 82 IU/L; Na [5]: 138.2 meq/L; PL [5]: 163 mg/dL; RALB [5]: 3.9 g/dL; TBIL [5]: 0.3 mg/dL; TC [5]: 81.8 mg/dL; TG [5]: 137 mg/dL; TP [5]: 5.9 g/dL; gamma-GTP [5]: 1.6 IU/L; TERMINAL_BW [6]: 268.9 g; TERMINAL_BW [7]: 333.8 g; TERMINAL_BW [8]: 403.9 g; APTT [6]: 16.8 s; Bas [6]: 0%; Eos [6]: 0.8%; Fbg [6]: 223 mg/dL; Hb [6]: 13.9 g/dL; Ht [6]: 41.4%; Lym [6]: 79.2%; MCH [6]: 20.6 pg; MCHC [6]: 33.5%; MCV [6]: 61.5 fL; Mono [6]: 7%; Neu [6]: 13.2%; PT [6]: 12.1 s; Plat [6]: 118.8 x10_4/uL; RBC [6]: 674.2 x10_4/ul; Ret [6]: 5.2%; WBC [6]: 127.5 x10_2/uL; APTT [7]: 17.3 s; Bas [7]: 0%; Eos [7]: 0.8%; Fbg [7]: 237.8 mg/dL; Hb [7]: 14.7 g/dL; Ht [7]: 43.8%; Lym [7]: 84.4%; MCH [7]: 20.8 pg; MCHC [7]: 33.6%; MCV [7]: 62.1 fL; Mono [7]: 5.8%; Neu [7]: 9%; PT [7]: 11.7 s; Plat [7]: 115 x10_4/uL; RBC [7]: 706.6 x10_4/ul; Ret [7]: 4.2%; WBC [7]: 167.8 x10_2/uL; APTT [8]: 17.6 s; Bas [8]: 0%; Eos [8]: 1%; Fbg [8]: 233 mg/dL; Hb [8]: 15.4 g/dL; Ht [8]: 45.5%; Lym [8]: 83.6%; MCH [8]: 19.8 pg; MCHC [8]: 33.9%; MCV [8]: 58.3 fL; Mono [8]: 6.2%; Neu [8]: 9.6%; PT [8]: 12.1 s; Plat [8]: 121.4 x10_4/uL; RBC [8]: 780.6 x10_4/ul; Ret [8]: 2.6%; WBC [8]: 150 x10_2/uL; KIDNEY_L [6]: 1.1 g; KIDNEY_R [6]: 1.1 g; KIDNEY_TOTAL [6]: 2.3 g; KIDNEY_L [7]: 1.3 g; KIDNEY_R [7]: 1.4 g; KIDNEY_TOTAL [7]: 2.7 g; KIDNEY_L [8]: 1.5 g; KIDNEY_R [8]: 1.5 g; KIDNEY_TOTAL [8]: 3 g; LIVER [6]: 13.2 g; LIVER [7]: 15.4 g; LIVER [8]: 17.2 g; ALP [6]: 792.4 IU/L; ALT [6]: 34 IU/L; AST [6]: 61 IU/L; BUN [6]: 18.4 mg/dL; CRE [6]: 0.5 mg/dL; Ca [6]: 11.1 mg/dL; DBIL [6]: 0 mg/dL; GLC [6]: 197.2 mg/dL; IP [6]: 8.3 mg/dL; K [6]: 4.8 meq/L; LDH [6]: 84 IU/L; Na [6]: 139.4 meq/L; PL [6]: 172.8 mg/dL; RALB [6]: 4 g/dL; TBIL [6]: 0.3 mg/dL; TC [6]: 88.4 mg/dL; TG [6]: 118.6 mg/dL; TP [6]: 6 g/dL; gamma-GTP [6]: 1.2 IU/L; ALP [7]: 779.6 IU/L; ALT [7]: 33.6 IU/L; AST [7]: 62.8 IU/L; BUN [7]: 20.4 mg/dL; CRE [7]: 0.6 mg/dL; Ca [7]: 10.9 mg/dL; DBIL [7]: 0.002 mg/dL; GLC [7]: 178.6 mg/dL; IP [7]: 7.8 mg/dL; K [7]: 5.2 meq/L; LDH [7]: 110.2 IU/L; Na [7]: 139.4 meq/L; PL [7]: 167.8 mg/dL; RALB [7]: 4.1 g/dL; TBIL [7]: 0.3 mg/dL; TC [7]: 81.2 mg/dL; TG [7]: 158 mg/dL; TP [7]: 6.3 g/dL; gamma-GTP [7]: 1.2 IU/L; ALP [8]: 564 IU/L; ALT [8]: 32.4 IU/L; AST [8]: 63.4 IU/L; BUN [8]: 21.2 mg/dL; CRE [8]: 0.6 mg/dL; Ca [8]: 10.7 mg/dL; DBIL [8]: 0 mg/dL; GLC [8]: 180.8 mg/dL; IP [8]: 7.3 mg/dL; K [8]: 4.3 meq/L; LDH [8]: 131.8 IU/L; Na [8]: 140.4 meq/L; PL [8]: 162.4 mg/dL; RALB [8]: 4.2 g/dL; TBIL [8]: 0.2 mg/dL; TC [8]: 74 mg/dL; TG [8]: 177.2 mg/dL; TP [8]: 6.4 g/dL
